The source of these data is the supplement of paper PMC10331698.

Compound in assay [1]: T1, C=CC(=O)OCC(F)(F)C(F)(F)C(F)(F)COC(=O)C=C [1H,1H,5H,5H-Perfluoro-1,5-pentanediol diacrylate]
Nature of the assay: LOEC (log10 uM (lowest observed effect concentration)). How it is done: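 BioMAP Diversity Plus panel in human primary cell co-cultures, 4 concentrations in duplicate blinded samples. Responses are log10 fold change versus DMSO control, processed with tcpl v2.1.0. A hit is called when responses at any concentration exceed the cutoff (the larger of 3*bmad or log10(1.2)); the lowest observed effect concentration (modl_ga, log10 uM) is reported for hits.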

Compound in assay [2]: C=C(C)C(=O)OCCC(F)(F)C(F)(F)C(F)(F)C(F)(F)C(F)(F)C(F)(F)F [6:2 Fluorotelomer methacrylate]
Nature of the assay: level (log10 ratio to DMSO vehicle control); higher = higher biomarker level / cell amount than vehicle control. Conditions: in DMSO. The protocol: (§1)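 BioMAP Diversity Plus panel of 12 human primary cell co-culture systems (3C, 4H, LPS, SAg, BT, BF4T, BE3C, CASM3C, HDF3CGF, KF3CT, MyoF, Mphg). Compounds were added 1 h before stimulation and left for 24 h (MyoF 48 h; BT 72 h for soluble read-outs or 6 d for IgG). Biomarkers were read by ELISA, cytotoxicity by SRB, PBMC viability and proliferation by Alamar Blue. Each well value was divided by the mean of 8 DMSO control wells on the same plate and log10 transformed; duplicate blinded samples were tested at 4 concentrations.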

Compound in assay [3]: T1, 1H,1H,5H,5H-Perfluoro-1,5-pentanediol diacrylate
Described as above. The settings on record: 6700 nM; in DMSO. The protocol:
as §1

Compound in assay [4]: COC(=O)C(F)(F)C(F)(F)OC(F)(C(F)(F)F)C(F)(F)OC(F)=C(F)F [Methyl perfluoro(3-(1-ethenyloxypropan-2-yloxy)propanoate)]
The description is as above. Conditions: in DMSO. The protocol: as §1

Compound in assay [5]: FC(F)(F)C(F)(F)C(F)(F)C(F)(F)C(F)(F)C(F)(F)C(F)(F)I [1-Iodopentadecafluoroheptane]
Described as above. The settings on record: in DMSO. How it is done: as §1

Compound in assay [6]: FC(F)(F)C(F)(F)C(F)(F)C(F)(F)C(F)(F)C(F)(F)CC1CO1 [3-(Perfluorohexyl)-1,2-epoxypropane]
Described as above. Conditions: in DMSO. How it is done:
as §1

Compound in assay [7]: FC(F)(F)C(F)(F)C(F)(F)CC1CO1 [1H,1H-Heptafluorobutyl epoxide]
Described as above. Conditions: in DMSO. How it is done: as §1

Compound in a further assay: FC(F)(F)C(F)(F)C(F)(F)CI [Heptafluorobutyl iodide]
The assay is described as above. Conditions: in DMSO. How it is done: as §1

Compound in assay [8]: FC(F)(F)C(F)(F)CNCC(F)(F)C(F)(F)F [Bis(1H,1H-perfluoropropyl)amine]
Described as above. Conditions: in DMSO. How it is done:
as §1

Compound in a further assay: NC(=O)C(F)(F)C(F)(F)C(F)(F)C(F)(F)C(N)=O [Octafluoroadipamide]
Described as above. Conditions: in DMSO. How it is done: as §1

Compound in a further assay: NC(=O)C(F)(F)C(F)(F)C(F)(F)C(F)(F)F [Nonafluoropentanamide]
The assay is described as above. Conditions: in DMSO. The protocol:
as §1

Compound in assay [9]: NC(=O)C(F)(F)C(F)(F)C(F)(F)C(F)F
The description is as above. The settings on record: in DMSO. How it is done: as §1

Compound in assay [10]: NS(=O)(=O)C(F)(F)C(F)(F)C(F)(F)C(F)(F)C(F)(F)C(F)(F)F [Perfluorohexanesulfonamide]
The description is as above. Conditions: in DMSO. How it is done: as §1

Compound in assay [11]: O=C(O)C(F)(F)C(F)(F)C(F)(F)C(F)(F)C(F)(F)C(F)(F)C(F)(F)C(F)(F)C(F)(F)C(F)F [11-H-Perfluoroundecanoic acid]
The description is as above. The settings on record: in DMSO. How it is done:
as §1

Compound in assay [12]: O=C(O)C=CC(F)(C(F)(F)F)C(F)(F)F [3-(Perfluoroisopropyl)-2-propenoic acid]
The description is as above. Conditions: in DMSO. The protocol:
as §1

Compound in assay [13]: O=S(=O)(Cl)C(F)(F)C(F)(F)C(F)(F)C(F)(F)C(F)(F)C(F)(F)C(F)(F)C(F)(F)F [Perfluoro-1-octanesulfonyl chloride]
The description is as above. Conditions: in DMSO. The protocol:
as §1

Compound in assay [14]: O=S(=O)(F)C(F)(F)C(F)(F)C(F)(F)C(F)(F)C(F)(F)C(F)(F)C(F)(F)C(F)(F)F [Perfluorooctanesulfonyl fluoride]
The assay is described as above. Conditions: in DMSO. The protocol:
as §1

Compound in assay [15]: O=S(=O)(O)C(F)(F)C(F)(F)C(F)(F)C(F)(F)C(F)(F)C(F)(F)C(F)(F)C(F)(F)C(F)(F)C(F)(F)F [Sodium perfluorodecanesulfonate]
The description is as above. Conditions: in DMSO. The protocol:
as §1

Compound in assay [16]: O=S(=O)(O)CCC(F)(F)C(F)(F)C(F)(F)C(F)(F)C(F)(F)C(F)(F)F [6:2 Fluorotelomer sulfonic acid]
Described as above. Conditions: in DMSO. How it is done:
as §1

Compound in a further assay: OCC(F)(F)C(F)(F)C(F)(F)CO [Hexafluoroamylene glycol]
The assay is described as above. The settings on record: in DMSO. The protocol: as §1

± gives the standard deviation of the averaged measurements.

Take 3C Eselectin down: the “LOEC (log10 uM)” value in assay [1] stood at 0.573 ± 0.39.
On the same count and under the same terms, the result for 3C ICAM1 down reads 1.3; that for 3C IL8 down, 1.3.
Same read-out and setting: the result for 3C MIG down reads 1.3; that for 3C TissueFactor down, 0.845; that for 3C VCAM1 down, 0.845.
Still for that read-out and setting: the result for 4H MCP1 down reads 1.3.
For the test system 4H Pselectin down, the “LOEC (log10 uM)” value in [1] amounted to 1.3.
The same measure, in the same setting: the figure for 4H uPAR down is 1.04 ± 1; for BT Bcell Proliferation down it is 0.845; for BT PBMCCytotoxicity down it is 0.573 ± 0.39.
Still for that read-out and setting: the result for BT sIgG down reads 0.845; that for BT xIL2 down, 0.845; that for BT xIL6 down, 0.573 ± 0.39.
The same measure, in the same setting: the figure for BT xIL17A down is 0.845; for BT xIL17F down it is 0.301.
On to BT xTNFa down, for which the “LOEC (log10 uM)” value in assay [1] is 0.301.
Same read-out and setting: the figure for CASM3C HLADR down is 1.3; for CASM3C IL6 down it is 1.3; for CASM3C IL8 down it is 1.3.
CASM3C LDLR down: the “LOEC (log10 uM)” value in assay [1] came out at 1.78.
On the same count and under the same terms, the figure for CASM3C MCP1 down is 1.78.
Still for that read-out and setting: the figure for CASM3C MCSF down is 1.3; for CASM3C MIG down it is 0.845.
As for CASM3C PAI1 down, the “LOEC (log10 uM)” value in assay [1] turned out to be 1.78.
Same read-out and setting: the result for CASM3C Proliferation down reads 0.573 ± 0.39; that for CASM3C SAA down, 1.78; that for CASM3C SRB down, 1.54 ± 0.34.
Turning to CASM3C Thrombomodulin up, the “LOEC (log10 uM)” value in assay [1] worked out at 1.3.
Same read-out and setting: the result for CASM3C VCAM1 down reads 0.845.
Same read-out and setting: the result for CASM3C uPAR down reads 1.78; that for IMphg IL8 down, 1.78.
The same measure, in the same setting: the result for IMphg MIP1a down reads 1.78; that for KF3CT ICAM1 down, 1.07 ± 0.32.
Turning to KF3CT IL8 down, in [1], the “LOEC (log10 uM)” value was 1.3.
Same read-out and setting: the figure for KF3CT TIMP2 down is 1.78; for LPS IL1a down it is 1.3.
On the same count and under the same terms, the figure for LPS IL8 down is 1.3; for LPS MCSF down it is 1.3.
The same measure, in the same setting: the result for LPS TNFa down reads 1.3; that for LPS TissueFactor down, 1.07 ± 0.32; that for MyoF Decorin down, 1.3.
MyoF IL8 down: the “LOEC (log10 uM)” value in [1] was found to be 1.3.
Same read-out and setting: the result for MyoF TIMP1 down reads 1.3; that for MyoF bFGF down, 1.3.
On to SAg:CD38, for which the “level (log10)” value in assay [2] (6700 nM) was -0.0075 ± 0.011; in assay [2] (20000 nM), 0.015 ± 0.038; in assay [2] (60000 nM), 0.0005 ± 0.029; in [3], -0.0655 ± 0.046; in assay [4] (6700 nM), -0.0175 ± 0.13; in assay [4] (20000 nM), 0.038 ± 0.082. The “level (log10)” value is -0.0085 ± 0.029 in assay [5] (6700 nM); -0.005 ± 0.024 in [5] (20000 nM); 0.001 ± 0.014 in [6] (6700 nM); 0.0035 ± 0.00071 in [6] (20000 nM); -0.015 ± 0.0042 in assay [6] (60000 nM); 0.0025 ± 0.012 in assay [7] (6700 nM). Also, the “level (log10)” value in assay [7] (20000 nM) was -0.025 ± 0.0085; in [7] (60000 nM) it was -0.0125 ± 0.03; with Heptafluorobutyl iodide (6700 nM), -0.0205 ± 0.021; in the assay with Heptafluorobutyl iodide (20000 nM) it was -0.027 ± 0.016; with Heptafluorobutyl iodide (60000 nM), -0.017 ± 0.031; in assay [8] (6700 nM) it was 0.001 ± 0.017. The “level (log10)” value in [8] (20000 nM) is -0.008 ± 0.018; in [8] (60000 nM), 0.002 ± 0.014; with Octafluoroadipamide (6700 nM), 0.0005 ± 0.00071; in the assay with Octafluoroadipamide (20000 nM), 0.0005 ± 0.018; with Octafluoroadipamide (60000 nM) it was 0.0065 ± 0.0021; with Nonafluoropentanamide (6700 nM) it was -0.0345 ± 0.037. The “level (log10)” value was -0.0265 ± 0.04 with Nonafluoropentanamide (20000 nM); -0.032 ± 0.028 with Nonafluoropentanamide (60000 nM); -0.034 ± 0.014 in [9] (6700 nM); -0.027 ± 0.02 in assay [9] (20000 nM); -0.0295 ± 0.0064 in assay [9] (60000 nM); 0.0495 ± 0.056 in assay [10] (6700 nM). The “level (log10)” value in [10] (20000 nM) is 0.0225 ± 0.061; in [10] (60000 nM), -0.141 ± 0.12; in assay [11] (6700 nM), -0.0045 ± 0.023; in assay [11] (20000 nM), 0.004 ± 0.04; in [12] (6700 nM), -0.0125 ± 0.026; in [12] (20000 nM) it was 0.001 ± 0.0071. Further, the “level (log10)” value in assay [12] (60000 nM) is -0.019 ± 0.0085; in [13] (6700 nM), -0.0105 ± 0.00071; in assay [13] (20000 nM) it was -0.018 ± 0.0014; in assay [13] (60000 nM) it was -0.058 ± 0.027; in assay [14] (6700 nM), -0.0015 ± 0.039; in [14] (20000 nM), 0.0035 ± 0.0092. Moreover, the “level (log10)” value in assay [14] (60000 nM) was 0.0145 ± 0.005; in [15] (1500 nM) it was -0.018 ± 0.02; in assay [15] (4400 nM) it was -0.041 ± 0.03; in assay [15] (13000 nM) it was 0.005 ± 0.035; in [15] (40000 nM) it was -0.071 ± 0.028; in assay [16] (6700 nM), -0.0315 ± 0.012. In addition, the “level (log10)” value in assay [16] (20000 nM) was -0.022 ± 0.04; in assay [16] (60000 nM), -0.0505 ± 0.032; with Hexafluoroamylene glycol (6700 nM), -0.02 ± 0.034; with Hexafluoroamylene glycol (20000 nM), -0.03 ± 0.025; with Hexafluoroamylene glycol (60000 nM), -0.0275 ± 0.046.
